For the assay, the target named is Gamma-aminobutyric acid type B receptor subunit 1/2 (UniProt O88871+Q9Z0U4). The assay can be described thus: Binding Assay. On the procedure:
The samples were incubated at room temperature for 60 minutes on a shaker. The incubation was stopped by rapid vacuum filtration over glass-fiber filter plates (UniFilter-96 well, GF/B membrane plates, PerkinElmer) using a 96-well plate harvester (TOMTEK Harvester). The UniFilter plate was washed five times with ice-cold wash buffer (50 mM Tris-HCl buffer, pH 7.7, 10 mM MgCl2, and 100 mM NaCl. After filtration the plate was dried for 90 minutes at 55° C. The plates were closed on the bottom with black sealing membranes, and liquid scintillation cocktail (35 μL, Betaplate Scint, PerkinElmer) was added to each well. After sealing the top of the plate, an additional incubation step of 90 minutes at room temperature followed before measuring the plate. The amount of membrane-bound [35S]GTPgS was measured using a 96-well plate reader (Microbeta , PerkinElmer).
Gamma-aminobutyric acid type B receptor subunit 1/2, sequence (Q9Z0U4 whole entry): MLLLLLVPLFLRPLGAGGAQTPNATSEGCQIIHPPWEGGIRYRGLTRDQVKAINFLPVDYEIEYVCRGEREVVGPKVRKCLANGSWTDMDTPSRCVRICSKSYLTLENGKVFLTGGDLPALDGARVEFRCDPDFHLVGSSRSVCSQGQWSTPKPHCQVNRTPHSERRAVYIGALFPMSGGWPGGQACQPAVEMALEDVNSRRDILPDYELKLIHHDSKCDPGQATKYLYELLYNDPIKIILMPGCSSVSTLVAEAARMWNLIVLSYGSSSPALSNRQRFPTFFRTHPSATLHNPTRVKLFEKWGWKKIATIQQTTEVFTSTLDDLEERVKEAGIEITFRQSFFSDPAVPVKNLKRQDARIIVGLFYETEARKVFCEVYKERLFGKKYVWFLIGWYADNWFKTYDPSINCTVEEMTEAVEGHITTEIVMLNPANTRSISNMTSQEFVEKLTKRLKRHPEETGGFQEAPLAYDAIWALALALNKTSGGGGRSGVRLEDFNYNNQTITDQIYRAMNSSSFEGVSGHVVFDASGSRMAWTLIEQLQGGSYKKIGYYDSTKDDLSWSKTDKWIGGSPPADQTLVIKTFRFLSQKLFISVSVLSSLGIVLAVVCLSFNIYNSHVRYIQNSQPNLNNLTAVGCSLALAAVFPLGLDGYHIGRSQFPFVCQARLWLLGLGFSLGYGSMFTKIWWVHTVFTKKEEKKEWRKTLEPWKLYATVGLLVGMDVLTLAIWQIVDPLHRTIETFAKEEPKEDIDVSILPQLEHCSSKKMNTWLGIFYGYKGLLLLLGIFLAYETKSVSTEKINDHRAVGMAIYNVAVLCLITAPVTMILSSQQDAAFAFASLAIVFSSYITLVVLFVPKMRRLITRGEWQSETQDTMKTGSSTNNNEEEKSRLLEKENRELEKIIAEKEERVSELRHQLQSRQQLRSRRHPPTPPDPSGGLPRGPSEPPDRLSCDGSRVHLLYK
Gamma-aminobutyric acid type B receptor subunit 1/2, sequence (O88871 whole entry): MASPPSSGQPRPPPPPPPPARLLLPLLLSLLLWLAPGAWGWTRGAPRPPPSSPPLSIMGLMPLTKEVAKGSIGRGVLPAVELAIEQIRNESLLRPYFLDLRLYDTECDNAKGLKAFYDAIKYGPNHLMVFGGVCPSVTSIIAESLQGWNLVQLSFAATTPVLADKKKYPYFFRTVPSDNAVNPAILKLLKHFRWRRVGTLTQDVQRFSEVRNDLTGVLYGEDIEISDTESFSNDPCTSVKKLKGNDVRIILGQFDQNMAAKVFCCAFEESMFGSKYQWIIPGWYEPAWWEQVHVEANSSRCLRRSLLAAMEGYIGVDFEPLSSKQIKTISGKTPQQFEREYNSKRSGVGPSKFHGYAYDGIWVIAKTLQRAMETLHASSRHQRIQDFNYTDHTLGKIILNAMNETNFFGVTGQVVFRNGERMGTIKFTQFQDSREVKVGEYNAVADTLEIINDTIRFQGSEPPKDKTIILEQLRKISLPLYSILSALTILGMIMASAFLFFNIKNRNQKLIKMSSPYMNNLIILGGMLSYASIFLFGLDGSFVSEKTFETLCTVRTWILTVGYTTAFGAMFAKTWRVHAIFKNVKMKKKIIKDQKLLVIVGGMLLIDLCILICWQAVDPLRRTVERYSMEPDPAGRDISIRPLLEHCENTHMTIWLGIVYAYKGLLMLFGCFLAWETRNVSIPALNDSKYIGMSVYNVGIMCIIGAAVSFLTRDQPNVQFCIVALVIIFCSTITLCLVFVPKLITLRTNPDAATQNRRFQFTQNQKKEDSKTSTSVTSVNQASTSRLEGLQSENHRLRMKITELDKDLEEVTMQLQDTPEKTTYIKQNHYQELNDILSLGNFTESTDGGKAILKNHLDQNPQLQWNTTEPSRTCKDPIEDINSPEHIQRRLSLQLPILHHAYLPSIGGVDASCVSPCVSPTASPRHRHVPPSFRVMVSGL
In the case of `COc1ccc(OC)c(-c2nn(Cc3ccc(Cl)cc3)c(=O)c3c(C(C)C)noc23)c1` [US10556914, Example 13], the midpoint of the response, the EC50, lay at 3.54 µM.

As to `COc1c(NC(C)=O)cccc1-c1nn(C(C)c2ccc(Cl)cc2)c(=O)c2c(C)noc12` (stereo not drawn) [US10556914, Example 33], the EC50 – broadly, the midpoint of the concentration-response curve – is above 10 µM.

For the compound `CC(=O)Nc1cccc(-c2nn(Cc3ccc(Cl)cc3)c(=O)c3c(C(C)C)noc23)c1` [US10556914, Example 96], the EC50 turned out to be 2.59 µM.

The record behind these values is BindingDB's records for patent US10556914 (ABBVIE INC.; ABBVIE DEUTSCHLAND GMBH & CO. KG, 2020).
